This is an account of results in publication PMC6474802 (Journal of natural products, 2018).

Some targets named below: TRPM8 (Homo sapiens, UniProt Q7Z2W7); TRPV1 (Homo sapiens, UniProt Q8NER1); TRPV4 (Homo sapiens, UniProt Q9HBA0).
Holding throughout (format): cell-based

Sequence of TRPM8 (Q7Z2W7 whole entry): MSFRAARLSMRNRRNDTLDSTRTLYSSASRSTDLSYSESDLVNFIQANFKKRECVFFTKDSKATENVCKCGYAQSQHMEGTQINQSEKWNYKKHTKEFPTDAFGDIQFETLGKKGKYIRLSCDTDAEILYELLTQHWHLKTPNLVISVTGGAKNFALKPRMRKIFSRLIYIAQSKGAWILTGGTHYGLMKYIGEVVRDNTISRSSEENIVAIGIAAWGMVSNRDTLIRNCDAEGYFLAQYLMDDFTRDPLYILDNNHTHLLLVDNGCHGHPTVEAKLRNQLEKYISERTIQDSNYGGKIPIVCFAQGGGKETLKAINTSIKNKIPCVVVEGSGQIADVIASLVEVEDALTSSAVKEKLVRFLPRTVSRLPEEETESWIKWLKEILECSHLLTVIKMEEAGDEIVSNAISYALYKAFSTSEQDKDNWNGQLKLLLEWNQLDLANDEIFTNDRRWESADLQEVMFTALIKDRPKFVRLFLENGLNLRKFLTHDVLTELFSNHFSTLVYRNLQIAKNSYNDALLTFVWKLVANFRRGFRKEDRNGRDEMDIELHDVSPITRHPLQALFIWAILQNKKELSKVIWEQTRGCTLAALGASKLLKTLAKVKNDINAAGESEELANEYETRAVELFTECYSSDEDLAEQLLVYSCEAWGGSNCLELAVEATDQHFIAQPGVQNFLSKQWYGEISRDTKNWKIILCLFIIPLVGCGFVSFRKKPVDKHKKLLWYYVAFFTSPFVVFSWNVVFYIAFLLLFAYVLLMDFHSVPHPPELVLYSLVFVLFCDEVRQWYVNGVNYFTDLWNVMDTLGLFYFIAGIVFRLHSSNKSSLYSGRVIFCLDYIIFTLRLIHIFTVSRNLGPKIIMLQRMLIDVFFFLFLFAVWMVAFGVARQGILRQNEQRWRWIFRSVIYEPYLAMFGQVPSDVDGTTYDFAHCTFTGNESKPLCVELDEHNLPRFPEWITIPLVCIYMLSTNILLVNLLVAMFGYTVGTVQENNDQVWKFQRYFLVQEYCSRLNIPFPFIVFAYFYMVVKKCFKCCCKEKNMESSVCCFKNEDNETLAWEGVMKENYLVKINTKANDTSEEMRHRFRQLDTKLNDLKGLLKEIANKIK
Sequence of TRPV1 (Q8NER1 whole entry): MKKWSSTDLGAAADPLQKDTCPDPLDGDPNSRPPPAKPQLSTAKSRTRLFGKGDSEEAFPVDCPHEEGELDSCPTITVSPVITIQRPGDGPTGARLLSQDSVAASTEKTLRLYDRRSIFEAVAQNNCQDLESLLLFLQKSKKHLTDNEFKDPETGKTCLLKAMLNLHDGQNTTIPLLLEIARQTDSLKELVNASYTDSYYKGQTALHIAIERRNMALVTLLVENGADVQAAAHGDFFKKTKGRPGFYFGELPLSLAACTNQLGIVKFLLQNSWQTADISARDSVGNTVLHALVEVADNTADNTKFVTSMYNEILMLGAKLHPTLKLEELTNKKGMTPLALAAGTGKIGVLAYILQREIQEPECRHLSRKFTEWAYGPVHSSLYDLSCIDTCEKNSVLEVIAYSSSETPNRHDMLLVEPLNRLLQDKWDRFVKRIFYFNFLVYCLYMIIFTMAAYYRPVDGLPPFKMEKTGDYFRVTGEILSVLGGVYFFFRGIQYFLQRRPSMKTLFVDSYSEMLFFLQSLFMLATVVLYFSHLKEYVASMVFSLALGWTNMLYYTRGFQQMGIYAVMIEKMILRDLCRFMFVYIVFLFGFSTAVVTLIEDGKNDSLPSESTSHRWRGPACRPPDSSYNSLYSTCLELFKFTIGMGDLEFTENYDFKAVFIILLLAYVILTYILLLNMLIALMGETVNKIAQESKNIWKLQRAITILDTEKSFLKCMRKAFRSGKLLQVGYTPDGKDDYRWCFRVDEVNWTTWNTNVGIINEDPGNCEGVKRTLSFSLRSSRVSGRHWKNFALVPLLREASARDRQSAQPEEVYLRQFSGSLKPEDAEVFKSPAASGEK
Sequence of TRPV4 (Q9HBA0 whole entry): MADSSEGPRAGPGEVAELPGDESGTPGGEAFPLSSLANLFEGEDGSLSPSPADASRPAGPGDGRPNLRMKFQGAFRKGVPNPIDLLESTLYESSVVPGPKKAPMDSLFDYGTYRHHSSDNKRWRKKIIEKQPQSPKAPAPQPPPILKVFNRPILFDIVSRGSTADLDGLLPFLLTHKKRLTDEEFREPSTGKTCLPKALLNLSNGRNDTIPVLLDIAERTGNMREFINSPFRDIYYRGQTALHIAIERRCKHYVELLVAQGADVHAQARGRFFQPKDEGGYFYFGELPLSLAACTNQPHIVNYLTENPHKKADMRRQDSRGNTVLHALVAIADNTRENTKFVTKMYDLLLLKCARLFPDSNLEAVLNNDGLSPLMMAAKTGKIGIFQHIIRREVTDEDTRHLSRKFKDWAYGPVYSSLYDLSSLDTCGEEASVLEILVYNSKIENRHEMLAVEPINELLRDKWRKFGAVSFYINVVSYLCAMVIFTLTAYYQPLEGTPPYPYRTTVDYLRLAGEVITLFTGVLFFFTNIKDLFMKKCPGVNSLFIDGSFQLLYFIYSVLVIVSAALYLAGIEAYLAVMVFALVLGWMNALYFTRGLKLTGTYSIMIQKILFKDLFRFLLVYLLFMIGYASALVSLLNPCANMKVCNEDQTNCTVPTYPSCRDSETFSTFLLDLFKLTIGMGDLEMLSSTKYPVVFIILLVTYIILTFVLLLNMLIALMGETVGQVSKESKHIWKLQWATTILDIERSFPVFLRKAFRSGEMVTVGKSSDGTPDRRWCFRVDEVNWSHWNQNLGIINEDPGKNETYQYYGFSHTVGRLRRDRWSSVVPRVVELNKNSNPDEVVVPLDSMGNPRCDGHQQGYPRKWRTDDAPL

Broadly, the IC50 is the concentration that inhibits the measured activity by half. A higher IC50 goes with lower potency. Onydecalin B [compound 2]: the IC50 against TRPM8 amounted to 18.5 µM.
On TRPM8, Onydecalin D [compound 4] came in with an IC50 of 61.6 µM. Against the preceding substance, the IC50 is about 3.3-fold higher.
Consider onydecalin A [compound 1], for which the figures for the 50% inhibitory concentration (IC50) on TRPV1 and against TRPV4 were around 81.6 µM and around 45.9 µM, respectively.
